Data reported in PubChem BioAssay (NCI).
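Dose response: 5 concentrations. Exposure: 48 h. Format: 96-well plates. Endpoint: linear interpolation; highest concentration if not reached. The concentration for full growth arrest is given as TGI.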

How the values were obtained:
Assay in all cases: DTP human tumour cell line panel, 48 h
COLO 205 colon = test system: COLO 205 colon
HCT-15 colon = test system: HCT-15 colon
KM12 colon = test system: KM12 colon
ACHN renal = test system: ACHN renal
786-0 renal = test system: 786-0 renal
MDA-N = test system: MDA-N
SF-539 CNS = test system: SF-539 CNS
BT-549 breast = test system: BT-549 breast
SK-MEL-5 melanoma = test system: SK-MEL-5 melanoma
NCI-H460 lung = test system: NCI-H460 lung
NCI-H522 lung = test system: NCI-H522 lung
MDA-MB-435 = test system: MDA-MB-435
A549 NSCLC = test system: A549 NSCLC
HCT-116 colon = test system: HCT-116 colon
LOX IMVI melanoma = test system: LOX IMVI melanoma
HCC-2998 colon = test system: HCC-2998 colon
SW-620 colon = test system: SW-620 colon
TK-10 renal = test system: TK-10 renal
CCRF-CEM leukemia = test system: CCRF-CEM leukemia
SN12C renal = test system: SN12C renal
SNB-19 CNS = test system: SNB-19 CNS
NCI/ADR-RES ovarian = test system: NCI/ADR-RES ovarian
MDA-MB-231 breast = test system: MDA-MB-231 breast
SK-OV-3 ovarian = test system: SK-OV-3 ovarian
OVCAR-4 ovarian = test system: OVCAR-4 ovarian
CAKI-1 renal = test system: CAKI-1 renal
OVCAR-5 ovarian = test system: OVCAR-5 ovarian
T-47D breast = test system: T-47D breast
SK-MEL-2 melanoma = test system: SK-MEL-2 melanoma
MALME-3M melanoma = test system: MALME-3M melanoma
NCI-H226 lung = test system: NCI-H226 lung
SK-MEL-28 melanoma = test system: SK-MEL-28 melanoma
OVCAR-8 ovarian = test system: OVCAR-8 ovarian
RXF 393 renal = test system: RXF 393 renal
PC-3 prostate = test system: PC-3 prostate
UACC-257 melanoma = test system: UACC-257 melanoma
A498 renal = test system: A498 renal
MCF7 breast = test system: MCF7 breast
M14 melanoma = test system: M14 melanoma
SNB-75 CNS = test system: SNB-75 CNS
UO-31 renal = test system: UO-31 renal
EKVX NSCLC = test system: EKVX NSCLC
NCI-H23 lung = test system: NCI-H23 lung
SF-295 CNS = test system: SF-295 CNS
RPMI-8226 leukemia = test system: RPMI-8226 leukemia
SF-268 CNS = test system: SF-268 CNS
IGROV1 ovarian = test system: IGROV1 ovarian
HOP-62 NSCLC = test system: HOP-62 NSCLC
SR leukemia = test system: SR leukemia
K-562 leukemia = test system: K-562 leukemia
HT29 colon = test system: HT29 colon
MOLT-4 leukemia = test system: MOLT-4 leukemia
OVCAR-3 ovarian = test system: OVCAR-3 ovarian
DU-145 prostate = test system: DU-145 prostate
HS 578T breast = test system: HS 578T breast
U251 CNS = test system: U251 CNS
UACC-62 melanoma = test system: UACC-62 melanoma

Measured: TGI

CC(C)=C[C@H]1CCC2(OCCO2)[C@]1(C)CO
not listed: HOP-62 NSCLC | SR leukemia | K-562 leukemia | HT29 colon | MOLT-4 leukemia | OVCAR-3 ovarian | DU-145 prostate | HS 578T breast | U251 CNS | UACC-62 melanoma
> 100 µM: all other assays above

COc1cc(OC)c2c(C)cc(=O)oc2c1
76.5 µM: A498 renal
79.5 µM: UO-31 renal
not listed: BT-549 breast | NCI-H460 lung | NCI-H522 lung | HCC-2998 colon | CAKI-1 renal | T-47D breast | RXF 393 renal
> 100 µM: all other assays above
